Reference: patent publication US20240043396A1, “METHODS OF TREATING OCULAR FIBROTIC PATHOLOGIES” (Mayo Foundation for Medical Education and Research, priority 2021, published 2024)

Tests used:
Type in all cases: cell-based, human
ARPE-19 cells [1] = assay: TGFβ-induced EMT in cultured RPE cells (morphology, qPCR of mesenchymal/profibrotic genes); conditions: ARPE-19, 5 ng/ml TGF-β1, 24 h, 0% FBS; 1 μM CTC-6 or 10 μM MS-9
Procedure: Cell culture: ARPE-19 cells were purchased from ATCC (Manassas, VA, USA) were cultured in Eagle's minimal essential medium (EMEM) containing 10% fetal bovine serum (FBS) and antibiotic-antimycotic (Thermo Fisher Scientific) unless otherwise noted.
qPCR analysis: ARPE-19 cells were plated on tissue culture dishes (Thermo Fisher Scientific, 60×15 mm) in EMEM containing 10% FBS and allowed to attach and grow for 24 h. Cells were stimulated with 5 ng/ml TGF-β1 and 10 μM MS-9 or 1 μM CTC-6 in EMEM containing 0% FBS for 24 h prior to RNA isolation using the RNeasy Plus Mini Kit (Qiagen, Hilden, Germany) according to the manufacturer's instructions. Isolated RNA (500 ng) was then used to synthesize cDNA using SuperScript VILO (Invitrogen, Carlsbad, CA, USA). Quantitative PCR (qPCR) was performed using FastStart Essential DNA Green Master and analyzed with LightCycler 96 (Roche, Basel, Switzerland). Data are expressed as a fold change by ΔΔCt relative to the level of the GAPDH housekeeping gene, and normalized to control.
As expected, TGFβ stimulated morphological changes consistent with EMT (FIG. 2A) and enhanced expression of ECM genes: COL1A1 and COL3A1, connective tissue growth factor (CTGF) and alpha-smooth muscle actin (ACTA2) (FIG. 2B).

ARPE-19 cells [2] = assay: qPCR of profibrotic gene expression in ARPE-19 cells ±TGFβ
Procedure: Cell culture: The human RPE cell line ARPE-19 was purchased from ATCC and cultured in Dulbecco's Modified Eagle Medium/Nutrient Mixture F-12 (DMEM/F-12) supplemented with 2.50 mM L-Glutamine, 15 mM HEPES Buffer, 10% fetal bovine serum (FBS), and 1% Antibiotic-Antimycotic (Gibco), unless otherwise noted. Cells were maintained in a humidified 37° C., 5% CO2 incubator. All experiments were performed with cells at passage 3-6. Chemicals and Reagents: dimethyl sulfoxide (DMSO) was purchased from Fisher Scientific and used to solubilize fenoldopam and SCH 39166. 2-mercaptoethanol was purchased from Bio-Rad Laboratories and added to RLT buffer prior to RNA isolation, as per Qiagen instructions. Fenoldopam and SCH 39166 were purchased from Cayman Chemical Company. TGFβ was purchased from InvivoGen. Fenoldopam, like a majority of […], has a characteristically short half-life. To take this into account we changed media daily to assess the efficacy of fenoldopam to inhibit fibrotic activation in vitro. RNA Isolation/qPCR Analysis: ARPE-19 cells were plated into 12 well plates (100,000 cells/well) and allowed to attach. Media was removed and replaced with the media specified in the “Cell Culture” section above, minus FBS. Cells were treated for 24 hours ±TGFβ (10 ng/mL), 10 μM fenoldopam, and 3 μM SCH 39166. RNA was isolated using the RNeasy Plus Mini Kit (Qiagen) and the manufacturer's protocol. Isolated RNA was converted to cDNA using the SuperScript VILO cDNA Synthesis Kit (Invitrogen) and the PTC-200 Peltier Thermal Cycler (MJ Research). Quantitative PCR (qPCR) was performed using FastStart Essential DNA Green Master (Roche) and LightCycler 96 (Roche).

ARPE-19 cells [3] = assay: LIVE/DEAD assay; conditions: ARPE-19, ±2% FBS, 10 μM fenoldopam, 4 days
Procedure: (§1) Cell culture: The human RPE cell line ARPE-19 was purchased from ATCC and cultured in Dulbecco's Modified Eagle Medium/Nutrient Mixture F-12 (DMEM/F-12) supplemented with 2.50 mM L-Glutamine, 15 mM HEPES Buffer, 10% fetal bovine serum (FBS), and 1% Antibiotic-Antimycotic (Gibco), unless otherwise noted. Cells were maintained in a humidified 37° C., 5% CO2 incubator. All experiments were performed with cells at passage 3-6. Proliferation and Live/Dead Assays: ARPE-19 cells were plated into 96-well plates (1,000 cells/well) and allowed to attach. Media was removed and replaced with the media specified in the “Cell Culture” section above, with reduced FBS. Cells were treated for four days ±2% FBS, and 10 μM fenoldopam, replacing media conditions every 24 hours for wells treated with fenoldopam. After four days, CellTiter-Fluor™ (Promega) was added to each well according to the manufacturer and measured on a Flexstation 3 (Molecular Devices) plate reader for the proliferation assay. For the LIVE/DEAD™ assay, each component of the kit (Thermo Fisher Scientific) was added, then cells were incubated for 30 minutes. Fluorescent images were then taken using a Cytation 5 imaging reader (BioTek) and quantified for cytotoxicity/viability.

ARPE-19 cells [4] = assay: Proliferation assay (CellTiter-Fluor); conditions: ARPE-19, ±2% FBS, 10 μM fenoldopam, 4 days
Procedure: as §1

ARPE-19 cells [5] = assay: Fibronectin deposition (immunofluorescence); conditions: ARPE-19, ±TGFβ 10 ng/mL, 10 μM fenoldopam, 4 days
Procedure: Cell culture: The human RPE cell line ARPE-19 was purchased from ATCC and cultured in Dulbecco's Modified Eagle Medium/Nutrient Mixture F-12 (DMEM/F-12) supplemented with 2.50 mM L-Glutamine, 15 mM HEPES Buffer, 10% fetal bovine serum (FBS), and 1% Antibiotic-Antimycotic (Gibco), unless otherwise noted. Cells were maintained in a humidified 37° C., 5% CO2 incubator. All experiments were performed with cells at passage 3-6. Fibronectin Deposition: ARPE-19 cells were plated into 96-well plates (10,000 cells/well) and allowed to attach. Media was removed and replaced with the media specified in the “Cell Culture” section above, without FBS. Cells were treated for four days ±TGFβ (10 ng/mL), 10 μM fenoldopam, replacing media conditions every 24 hours for wells treated with fenoldopam. Cells were fixed with 10% neutral buffered formalin (Sigma-Aldrich) for 15 minutes. Cells were permeabilized with 0.25% Triton X-100 (Sigma-Aldrich) and blocked with 1% BSA for 1 hour. Cells were incubated with mouse monoclonal IgG3 primary antibodies against fibronectin (Santa Cruz Biotechnology), which were diluted 1:400 in 0.25% Triton X-100 (Sigma-Aldrich) with 1% BSA. Cells were incubated with primary antibodies either in 4° C. overnight or at room temperature for 2 hours. […] Immunofluorescence was measured using a Cytation 5 imaging reader (BioTek).

ARPE-19 cells [6] = assay: Wound healing (wound migration) assay; conditions: ARPE-19, ±TGFβ 10 ng/mL, 10 μM fenoldopam, 0-72 hours, media changed every 24 hours
Procedure: Cell culture: The human RPE cell line ARPE-19 was purchased from ATCC and cultured in Dulbecco's Modified Eagle Medium/Nutrient Mixture F-12 (DMEM/F-12) supplemented with 2.50 mM L-Glutamine, 15 mM HEPES Buffer, 10% fetal bovine serum (FBS), and 1% Antibiotic-Antimycotic (Gibco), unless otherwise noted. Cells were maintained in a humidified 37° C., 5% CO2 incubator. All experiments were performed with cells at passage 3-6. Wound Healing Assay: ARPE-19 cells were plated confluent into a 12-well plate (300,000 cells/well) and allowed to attach. Cells were exposed to a single scratch made with a p200 pipette tip. Media was removed and replaced with the media specified in the “Cell Culture” section above, without FBS. Cells were treated ±TGFβ (10 ng/mL), 10 μM fenoldopam replacing media conditions every 24 hours for wells treated with fenoldopam. Cells were imaged after treatment for 0, 24, 48, and 72 hours. Cells were imaged with an inverted phase-contract microscope and wound area was measured using ImageJ software as previously described.

## NCC1OC(c2ccncc2)Cc2c1ccc(O)c2O (centres unmarked) [CTC-6]
ARPE-19 cells [1]
  markers of EMT (morphology; COL1A1, COL3A1, CTGF, ACTA2 expression): blocked markers of EMT

## CN1CCc2cc(Cl)c(O)cc2[C@H]2c3ccccc3CC[C@@H]21 [SCH 39166]
ARPE-19 cells [2]; ARPE-19, TGFβ 10 ng/mL + 3 μM SCH 39166, 24 hours
  effect of D5 antagonist alone in the presence of TGFβ on profibrotic gene expression: no effect
ARPE-19 cells [2]; ARPE-19, TGFβ 10 ng/mL + 10 μM fenoldopam + 3 μM SCH 39166, 24 hours
  effect of D5 antagonist on the antifibrotic effects of fenoldopam (profibrotic gene expression): surmount the antifibrotic effects of fenoldopam

## Oc1ccc(C2CNCCc3c2cc(O)c(O)c3Cl)cc1 (centres unmarked) [fenoldopam]
ARPE-19 cells [3]
  antifibrotic response in live/dead assay: robust antifibrotic response
ARPE-19 cells [4]
  antifibrotic response in proliferation assay: robust antifibrotic response
ARPE-19 cells [5]
  antifibrotic response in fibronectin deposition assay: robust antifibrotic response
ARPE-19 cells [2]; ARPE-19, TGFβ 10 ng/mL, 10 μM fenoldopam, 24 hours
  expression of COL1A1, ACTA2, and FN1 compared to TGFβ exclusively: significant decrease
ARPE-19 cells [6]
  antifibrotic response in wound migration assay: robust antifibrotic response
